# Patent publication US20230087118A1, “IMIDAZO[1,2-a][sequence] DERIVATIVES AND THEIR USE IN THE TREATMENT OF DISEASE” (priority 2019, published 2023)
# Where a name gives a salt, the structure may show the parent alone.
# Target: T1, IRAK4 (Homo sapiens, UniProt Q9NWZ3)
# T1 sequence (Q9NWZ3 1-460): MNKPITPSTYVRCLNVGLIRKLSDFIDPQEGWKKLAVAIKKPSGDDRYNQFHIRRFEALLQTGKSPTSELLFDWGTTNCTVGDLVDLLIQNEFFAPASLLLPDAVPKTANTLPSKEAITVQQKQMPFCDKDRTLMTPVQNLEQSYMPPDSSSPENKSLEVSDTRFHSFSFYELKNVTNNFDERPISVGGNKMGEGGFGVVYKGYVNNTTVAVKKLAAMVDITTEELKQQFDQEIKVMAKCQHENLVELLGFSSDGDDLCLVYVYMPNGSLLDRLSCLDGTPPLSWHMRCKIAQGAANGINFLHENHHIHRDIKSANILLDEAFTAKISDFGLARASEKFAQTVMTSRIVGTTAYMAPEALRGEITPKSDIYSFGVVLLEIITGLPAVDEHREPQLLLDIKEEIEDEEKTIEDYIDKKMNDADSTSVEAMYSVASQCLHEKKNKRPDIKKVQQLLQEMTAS
# Test: biochemical
# Details: not given
row,IC50,SMILES
1,0.0038 µM,"CC(C)Oc1cc2nc(C34CCC(C)(C3)OC4)cn2cc1C(=O)Nc1ccn(C(F)(F)F)n1 (stereo not shown) [Example 506, 7-Isopropoxy-2-(1-methyl-2-oxabicyclo[2.2.1]heptan-4-yl)-N-(1-(trifluoromethyl)-1H-pyrazol-3-yl)imidazo[1,2-a]pyridine-6-carboxamide]"
2,0.0013 µM,"COc1ncccc1NC(=O)c1cn2cc(C34COC(C3)C4)nc2cc1OC(C)C [Example 545, 2-(2-Oxabicyclo[2.1.1]hexan-4-yl)-7-isopropoxy-N-(2-methoxypyridin-3-yl)imidazo[1,2-a]pyridine-6-carboxamide]"
3,0.0015 µM,CCOc1nc2nc(C34COC(C)(C3)C4)cn2cc1C(=O)Nc1cccc(C(F)F)n1 [Example 241]
4,0.0027 µM,"CCOc1nc(C(=O)Nc2cccc(F)c2OC)cn2cc(C34COC(C)(C3)C4)nc12 [Example 487, 8-Ethoxy-N-(3-fluoro-2-methoxyphenyl)-2-(1-methyl-2-oxabicyclo[2.1.1]hexan-4-yl)imidazo[1,2-a]pyrazine-6-carboxamide]"
5,0.0012 µM,CC[C@@H](C)Oc1cc2nc(C34COC(C)(C3)C4)cn2cc1C(=O)Nc1cnn2cc(C)cnc12 [Example 560]
6,0.0016 µM,"Cn1ccc(NC(=O)c2cn3cc(C45COC(C)(C4)C5)nc3nc2OCC2CC2)n1 [Example 370, 7-(Cyclopropylmethoxy)-N-(1-methyl-1H-pyrazol-3-yl)-2-(1-methyl-2-oxabicyclo[2.1.1]hexan-4-yl)imidazo[1,2-a]pyrimidine-6-carboxamide]"
7,0.006 µM,"Cn1ccc(NC(=O)c2cn3cc(C45COC(C)(C4)C5)nc3nc2OC2CCCC2)n1 [Example 285, 7-(Cyclopentyloxy)-N-(1-methyl-1H-pyrazol-3-yl)-2-(1-methyl-2-oxabicyclo[2.1.1]hexan-4-yl)imidazo[1,2-a]pyrimidine-6-carboxamide]"
8,0.0033 µM,"CC(C)Oc1cc2nc(C34CCC(C)(C3)OC4)cn2cc1C(=O)Nc1ccn(C)n1 (stereo not shown) [Example 414, 7-Isopropoxy-N-(1-methyl-1H-pyrazol-3-yl)-2-(1-methyl-2-oxabicyclo[2.2.1]heptan-4-yl)imidazo[1,2-a]pyridine-6-carboxamide]"
9,0.0082 µM,"CC(C)Oc1nc2nc(C34COC(C)(C3)C4)cn2cc1C(=O)Nc1ccn(C(F)(F)F)n1 [Example 362, 7-Isopropoxy-2-(1-methyl-2-oxabicyclo[2.1.1]hexan-4-yl)-N-(1-(trifluoromethyl)-1H-pyrazol-3-yl)imidazo[1,2-a]pyrimidine-6-carboxamide]"
10,0.0027 µM,COc1cc2nc(C3CCOCC3)cn2cc1C(=O)Nc1cccnc1OC [Example 193]
11,0.0004 µM,"COc1ncccc1NC(=O)c1cn2cc(C34COC(C)(C3)C4)nc2c(OC(C)C)n1 [Example 337, 8-Isopropoxy-N-(2-methoxypyridin-3-yl)-2-(1-methyl-2-oxabicyclo[2.1.1]hexan-4-yl)imidazo[1,2-a]pyrazine-6-carboxamide]"
12,0.0016 µM,"CCOc1nc(C(=O)Nc2cccnc2OC(F)F)cn2cc(C34COC(C)(C3)C4)nc12 [Example 492, N-(2-(difluoromethoxy)pyridin-3-yl)-8-ethoxy-2-(1-methyl-2-oxabicyclo[2.1.1]hexan-4-yl)imidazo[1,2-a]pyrazine-6-carboxamide]"
13,0.0001 µM,"CC(C)Oc1cc2nc([C@]34CC[C@H](C3)OC4)cn2cc1C(=O)Nc1cccc(C(F)F)n1 (single isomer, unassigned) [Example 591]"
14,0.0081 µM,CC(C)Oc1cc2nc(C34COC(C)(C3)C4)cn2cc1C(=O)Nc1cccnc1OC(F)F [Example 222]
15,0.0298 µM,"COc1cc2nc(C34COC(C)(C3)C4)cn2cc1C(=O)Nc1ccccn1 [Example 1, 7-Methoxy-2-(1-methyl-2-oxabicyclo[2.1.1]hexan-4-yl)-N-(2-pyridyl)imidazo[1,2-a]pyridine-6-carboxamide]"

# Second part, the compound before the results:
row,SMILES,IC50
1,"CCCOc1nc(C(=O)Nc2cccc(C(F)F)n2)cn2cc(C3CCOCC3)nc12 [Example 335, N-(6-(difluoromethyl)pyridin-2-yl)-8-propoxy-2-(tetrahydro-2H-pyran-4-yl)imidazo[1,2-a]pyrazine-6-carboxamide]",0.0006 µM
2,"COc1ncccc1NC(=O)c1cn2cc(C3CC3)nc2nc1OC(C)C [Example 283, 2-Cyclopropyl-7-isopropoxy-N-(2-methoxypyridin-3-yl)imidazo[1,2-a]pyrimidine-6-carboxamide]",0.0025 µM
3,"CC(C)Oc1nc2nc(C34COC(C)(C3)C4)cn2cc1C(=O)Nc1nc(C(F)F)cs1 [Example 367, N-(4-(difluoromethyl)thiazol-2-yl)-7-isopropoxy-2-(1-methyl-2-oxabicyclo[2.1.1]hexan-4-yl)imidazo[1,2-a]pyrimidine-6-carboxamide]",0.0079 µM
4,"CC(C)Oc1nc(C(=O)Nc2cnn3cccnc23)cn2cc(C34CCC(C)(CC3)OC4)nc12 [Example 428, 8-Isopropoxy-2-(1-methyl-2-oxabicyclo[2.2.2]octan-4-yl)-N-(pyrazolo[1,5-a]pyrimidin-3-yl)imidazo[1,2-a]pyrazine-6-carboxamide]",0.0016 µM
5,"CC(C)Oc1nc(C(=O)Nc2cccc(C(F)F)n2)cn2cc([C@@]34CC[C@@](C)(C3)OC4)nc12 (single isomer, unassigned) [Example 588]",0.0015 µM
6,"COCCCc1cn2cc(C(=O)Nc3cccc(OC)n3)c(OC(C)C)cc2n1 [Example 103, 7-Isopropoxy-2-(3-methoxypropyl)-N-(6-methoxypyridin-2-yl)imidazo[1,2-a]pyridine-6-carboxamide]",0.0032 µM
7,"COc1cccc(NC(=O)c2cn3cc(C45CCC(C)(C4)OC5)nc3cc2OC2CCC2)n1 (stereo not shown) [Example 541, 7-Cyclobutoxy-N-(6-methoxypyridin-2-yl)-2-(1-methyl-2-oxabicyclo[2.2.1]heptan-4-yl)imidazo[1,2-a]pyridine-6-carboxamide]",0.0002 µM
8,"CC(C)Oc1nc(C(=O)Nc2ccn(C)n2)cn2cc([C@@]34CC[C@@](C)(C3)OC4)nc12 (single isomer, unassigned) [Example 592]",0.0034 µM
9,"COc1cccc(NC(=O)c2cn3cc(C4C5COCC54)nc3cc2OC(C)C)n1 (stereo not shown) [Example 254, 2-(3-Oxabicyclo[3.1.0]hexan-6-yl)-7-isopropoxy-N-(6-methoxypyridin-2-yl)imidazo[1,2-a]pyridine-6-carboxamide]",0.001 µM
10,"CC12CC(c3cn4cc(C(=O)Nc5cccc6ccnn56)nc(OC5CCC5)c4n3)(CO1)C2 [Example 348, 8-Cyclobutoxy-2-(1-methyl-2-oxabicyclo[2.1.1]hexan-4-yl)-N-(pyrazolo[1,5-a]pyridin-7-yl)imidazo[1,2-a]pyrazine-6-carboxamide]",0.0082 µM
11,CCOc1cc2nc([C@H]3C[C@H]3F)cn2cc1C(=O)Nc1cccc(OC)n1 [Example 79],0.0126 µM
12,"CC(C)Oc1cc2nc(C34COC(C3)C4)cn2cc1C(=O)Nc1cccn(C(F)F)c1=O [Example 547, 2-(2-Oxabicyclo[2.1.1]hexan-4-yl)-N-(1-(difluoromethyl)-2-oxo-1,2-dihydropyridin-3-yl)-7-isopropoxyimidazo[1,2-a]pyridine-6-carboxamide]",0.0008 µM
13,COc1cc2nc(C3CCOCC3)cn2cc1C(=O)Nc1ccn(CCF)n1 [Example 190],0.111 µM
14,COc1nc(C(=O)Nc2ccn(C(F)F)n2)cn2cc(C3CCOCC3)nc12 [Example 87],0.0329 µM
15,CCOc1nc(C(=O)Nc2cccc3c2CCC3)cn2cc(C3CCOCC3)nc12 [Example 211],0.0116 µM

# Same assay, conditions: IRAK4 Biochemical Assay (1 mM ATP, 2 h) IC50 (μM), 1 mM ATP, 2 h, 100 pM IRAK4
row,IC50,SMILES
1,0.124 µM,COc1cccc(NC(=O)c2cn3cc(C45CC(C)(CO4)C5)nc3cc2OC)n1 [Example 26]
2,0.0047 µM,"CC(C)Oc1cc2nc(C34COC(C)(C3)C4)cn2cc1C(=O)Nc1cncn(C)c1=O [Example 261, 7-Isopropoxy-N-(1-methyl-6-oxo-1,6-dihydropyrimidin-5-yl)-2-(1-methyl-2-oxabicyclo[2.1.1]hexan-4-yl)imidazo[1,2-a]pyridine-6-carboxamide 2,2,2-trifluoroacetate]"

# More lines, now with the values behind:
row,SMILES,IC50
1,"CC(C)Oc1cc2nc(C(C)(F)F)cn2cc1C(=O)Nc1cccc(C(F)F)n1 [Example 98, 2-(1,1-Difluoroethyl)-N-(6-(difluoromethyl)pyridin-2-yl)-7-isopropoxyimidazo[1,2-a]pyridine-6-carboxamide]",0.0038 µM
2,"CCOc1cc2nc(C3CCOCC3)cn2cc1C(=O)Nc1cccc(C2CCOC2)n1 (stereo not shown) [Example 391, 7-Ethoxy-2-(tetrahydro-2H-pyran-4-yl)-N-(6-(tetrahydrofuran-3-yl)pyridin-2-yl)imidazo[1,2-a]pyridine-6-carboxamide hydrochloride]",0.0034 µM
3,"CC(C)Oc1cc2nc(C34CCC(C)(CC3)OC4)cn2cc1C(=O)Nc1ccn(C)n1 [Example 571, 7-Isopropoxy-N-(1-methyl-1H-pyrazol-3-yl)-2-(1-methyl-2-oxabicyclo[2.2.2]octan-4-yl)imidazo[1,2-a]pyridine-6-carboxamide]",0.0017 µM
4,"O=C(Nc1cccc(C(F)F)n1)c1cn2cc(C3CC3)nc2cc1OCC1CC2CCC1O2 (stereo not shown) [Example 470, 7-((7-Oxabicyclo[2.2.1]heptan-2-yl)methoxy)-2-cyclopropyl-N-(6-(difluoromethyl)pyridin-2-yl)imidazo[1,2-a]pyridine-6-carboxamide]",0.0015 µM
5,"O=C(Nc1cccn(C(F)F)c1=O)c1cn2cc(C3CC3)nc2cc1OC1CC(C(F)F)C1 (stereo not shown) [Example 461, 2-Cyclopropyl-N-(1-(difluoromethyl)-2-oxo-1,2-dihydropyridin-3-yl)-7-(3-(difluoromethyl)cyclobutoxy)imidazo[1,2-a]pyridine-6-carboxamide]",0.0072 µM
